Reference: PubChem BioAssay (NCI)
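Cultured in 96-well plates, cells were exposed to test compound for 48 hours across five concentrations. The concentration for 50% growth inhibition is given as GI50. TGI: total growth inhibition.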

Experiments:
Assay in all cases: NCI-60 cell line screen, 48 h
[1] = test system: 786-0 renal
[2] = test system: A498 renal
[3] = test system: A549 NSCLC
[4] = test system: ACHN renal
[5] = test system: BT-549 breast
[6] = test system: CAKI-1 renal
[7] = test system: CCRF-CEM leukemia
[8] = test system: COLO 205 colon
[9] = test system: DU-145 prostate
[10] = test system: EKVX NSCLC
[11] = test system: HCC-2998 colon
[12] = test system: HCT-116 colon
[13] = test system: HCT-15 colon
[14] = test system: HL-60(TB) leukemia
[15] = test system: HOP-62 NSCLC
[16] = test system: HOP-92 NSCLC
[17] = test system: HS 578T breast
[18] = test system: HT29 colon
[19] = test system: IGROV1 ovarian
[20] = test system: K-562 leukemia
[21] = test system: KM12 colon
[22] = test system: LOX IMVI melanoma
[23] = test system: M14 melanoma
[24] = test system: MALME-3M melanoma
[25] = test system: MCF7 breast
[26] = test system: MDA-MB-231 breast
[27] = test system: MDA-MB-435
[28] = test system: MDA-N
[29] = test system: MOLT-4 leukemia
[30] = test system: NCI-H226 lung
[31] = test system: NCI-H23 lung
[32] = test system: NCI-H460 lung
[33] = test system: NCI-H522 lung
[34] = test system: NCI/ADR-RES ovarian
[35] = test system: OVCAR-3 ovarian
[36] = test system: OVCAR-4 ovarian
[37] = test system: OVCAR-5 ovarian
[38] = test system: OVCAR-8 ovarian
[39] = test system: PC-3 prostate
[40] = test system: RPMI-8226 leukemia
[41] = test system: SF-268 CNS
[42] = test system: SF-295 CNS
[43] = test system: SF-539 CNS
[44] = test system: SK-MEL-2 melanoma
[45] = test system: SK-MEL-28 melanoma
[46] = test system: SK-MEL-5 melanoma
[47] = test system: SK-OV-3 ovarian
[48] = test system: SN12C renal
[49] = test system: SNB-19 CNS
[50] = test system: SNB-75 CNS
[51] = test system: SR leukemia
[52] = test system: SW-620 colon
[53] = test system: T-47D breast
[54] = test system: TK-10 renal
[55] = test system: U251 CNS
[56] = test system: UACC-257 melanoma
[57] = test system: UACC-62 melanoma
[58] = test system: UO-31 renal
[59] = test system: DLD-1 colon
[60] = test system: DMS 114 small cell lung
[61] = test system: DMS 273 small cell lung
[62] = test system: KM20L2 colon
[63] = test system: LXFL 529 NSCLC
[64] = test system: M19-MEL melanoma
[65] = test system: RXF 393 renal
[66] = test system: SNB-78 CNS

CC1(C)OC(CP(c2ccccc2)c2ccccc2)C(CP(c2ccccc2)c2ccccc2)O1 (configuration not stated)
TGI [1]: > 100 µM | TGI [2]: > 100 µM | TGI [3]: > 100 µM | GI50 [4]: 2.98 µM | TGI [4]: > 100 µM | TGI [5]: > 100 µM | TGI [6]: > 100 µM | TGI [7]: 45.5 µM | TGI [8]: 2.75 µM | TGI [9]: > 55.5 µM | TGI [10]: > 100 µM | TGI [11]: > 100 µM | TGI [12]: > 100 µM | TGI [13]: > 100 µM | TGI [14]: 1.84 µM | GI50 [15]: 0.56 µM | TGI [15]: > 100 µM | TGI [16]: > 27.7 µM | TGI [17]: > 100 µM | TGI [18]: > 100 µM | TGI [19]: > 100 µM | TGI [20]: > 100 µM | TGI [21]: > 38.1 µM | TGI [22]: > 100 µM | TGI [23]: > 100 µM | TGI [24]: 41.1 µM | TGI [25]: > 100 µM | TGI [26]: > 100 µM | TGI [27]: > 100 µM | TGI [28]: > 28.1 µM | TGI [29]: > 100 µM | TGI [30]: > 100 µM | TGI [31]: > 22.5 µM | TGI [32]: > 100 µM | TGI [33]: > 22.7 µM | TGI [34]: > 100 µM | TGI [35]: > 100 µM | TGI [36]: > 87.3 µM | TGI [37]: 7.73 µM | TGI [38]: > 100 µM | TGI [39]: > 100 µM | GI50 [40]: 2.75 µM | TGI [40]: 14.4 µM | TGI [41]: > 100 µM | TGI [42]: > 100 µM | TGI [43]: > 100 µM | TGI [44]: 10.7 µM | TGI [45]: > 100 µM | TGI [46]: > 26.4 µM | TGI [47]: > 100 µM | TGI [48]: > 100 µM | TGI [49]: > 100 µM | GI50 [50]: 0.865 µM | TGI [50]: 5.33 µM | TGI [51]: > 100 µM | TGI [52]: > 100 µM | GI50 [53]: 0.173 µM | TGI [53]: 0.947 µM | TGI [54]: > 100 µM | TGI [55]: > 100 µM | TGI [56]: > 100 µM | TGI [57]: > 100 µM | GI50 [58]: 2.78 µM | TGI [58]: > 100 µM

COc1ccc2c(c1)Oc1cc(O)ccc1[C@@H]2c1ccccc1C(=O)NC(C)c1ccccc1 (some centres not stated)
TGI [1]: 27.9 µM | TGI [2]: 32.1 µM | TGI [3]: 42.5 µM | TGI [4]: 41.1 µM | TGI [6]: 42.2 µM | TGI [7]: 98.7 µM | TGI [8]: 32.9 µM | TGI [59]: 39.4 µM | TGI [60]: 32.3 µM | TGI [61]: 28.2 µM | TGI [10]: 31.5 µM | TGI [11]: 26.6 µM | TGI [12]: 24.8 µM | TGI [13]: 34.6 µM | TGI [14]: 34.5 µM | TGI [15]: 35.8 µM | TGI [18]: 34 µM | TGI [19]: 41.3 µM | TGI [20]: > 100 µM | TGI [21]: 33.9 µM | TGI [62]: 31.4 µM | TGI [22]: 30.4 µM | TGI [63]: 30.1 µM | TGI [23]: 24.6 µM | TGI [64]: 32.2 µM | TGI [24]: 31.3 µM | TGI [29]: 36.2 µM | TGI [30]: 35.4 µM | TGI [31]: 35.5 µM | TGI [32]: 27.4 µM | TGI [33]: 33.4 µM | TGI [35]: 34.5 µM | TGI [37]: 30.5 µM | TGI [38]: 46.7 µM | TGI [40]: 39.1 µM | TGI [65]: 29.9 µM | TGI [41]: 52.8 µM | TGI [42]: 28.6 µM | TGI [43]: 31 µM | TGI [44]: 46.6 µM | TGI [45]: 31.3 µM | TGI [46]: 32.2 µM | TGI [47]: 49.1 µM | TGI [48]: 28.6 µM | TGI [49]: 32.7 µM | TGI [50]: 36.3 µM | TGI [66]: 32.6 µM | TGI [52]: 38.9 µM | TGI [54]: 50.7 µM | TGI [55]: 28.8 µM | TGI [56]: 32.7 µM | TGI [57]: 28.2 µM | TGI [58]: 34.1 µM
